In ChEMBL document CHEMBL1201862, “PubChem BioAssay data set” (2004):
The source made the active and inactive calls. Cut-off read from the data, not from the text of the source: actives have a measured IC50 and inactives only a lower limit.

Target: Envelope glycoprotein gp160 (Human immunodeficiency virus 1, UniProt Q6QLK5)
Assay: cell-free HIV fusion peptide-binding blockers – biochemical, uHTS, fluorescence dequenching, […] (AID 1986)

Sequence of Envelope glycoprotein gp160 (Q6QLK5 whole entry, the tested form may be a part): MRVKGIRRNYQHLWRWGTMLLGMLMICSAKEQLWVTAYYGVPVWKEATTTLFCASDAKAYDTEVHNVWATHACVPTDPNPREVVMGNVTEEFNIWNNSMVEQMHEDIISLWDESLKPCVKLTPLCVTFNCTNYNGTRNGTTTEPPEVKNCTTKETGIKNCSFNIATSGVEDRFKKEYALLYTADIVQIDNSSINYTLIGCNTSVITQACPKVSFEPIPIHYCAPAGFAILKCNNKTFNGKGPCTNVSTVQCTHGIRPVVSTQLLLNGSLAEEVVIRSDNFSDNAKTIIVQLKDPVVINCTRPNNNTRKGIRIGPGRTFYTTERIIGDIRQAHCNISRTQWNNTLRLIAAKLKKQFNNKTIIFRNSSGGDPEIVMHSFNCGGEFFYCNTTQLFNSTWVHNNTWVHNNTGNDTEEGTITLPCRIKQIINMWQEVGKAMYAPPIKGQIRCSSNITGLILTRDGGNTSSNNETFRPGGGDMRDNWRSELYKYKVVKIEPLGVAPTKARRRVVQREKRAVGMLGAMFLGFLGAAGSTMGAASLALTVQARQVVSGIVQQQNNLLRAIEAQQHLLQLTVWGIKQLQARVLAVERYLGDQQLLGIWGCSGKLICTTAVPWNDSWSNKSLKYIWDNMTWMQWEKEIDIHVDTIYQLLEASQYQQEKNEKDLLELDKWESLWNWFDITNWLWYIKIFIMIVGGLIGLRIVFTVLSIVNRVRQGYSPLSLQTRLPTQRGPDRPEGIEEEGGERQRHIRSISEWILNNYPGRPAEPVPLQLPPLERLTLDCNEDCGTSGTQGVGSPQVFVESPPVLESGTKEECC

O=C(N/N=C/c1cc(Cl)cc([N+](=O)[O-])c1O)c1ccccc1NS(=O)(=O)c1cccs1
IC50: 13.6 µM (active)

COc1cc(OC)c2c(O)c3c(c(-c4c5c(c(O)c6c(OC)cc(OC)cc46)CO[C@@H](C)[C@H]5O)c2c1)[C@H](O)[C@H](C)OC3
IC50: 10.1 µM (active)
